# Data from PubChem BioAssay AID2305 (GlaxoSmithKline (GSK), 2010).
# Test system: P. falciparum 3D7 growth, pLDH absorbance
# Experiment: blood-stage malaria parasite growth potency – strain 3D7, dose response (AID 2305)
row,SMILES,IC50 [nM]
1,O=c1cc(NCCCNCc2cc(Cl)cc(Cl)c2OCc2ccc(Cl)cc2)[nH]c2ccccc12,690
2,COc1cc(C(F)(F)F)nc2c(CNCCCNc3cc(=O)c4ccccc4[nH]3)scc12,1180
3,Cc1ccc2nc(C)cc(Nc3ccccc3O)c2c1,790
4,O=C1c2cc(I)ccc2SC1c1ccccc1 (centres undefined),820
5,COc1ccc2nccc([C@@H](O)CN3CCC(NC/C=C/c4cccnc4)CC3)c2c1,620
6,O=C(Nc1cccc(N2CCC(NCc3cccnc3)CC2)c1)c1cccc(C(F)(F)F)c1,970
7,CCNCc1ccc(-c2cccc(-c3nc4ccccc4[nH]3)c2)cc1,550
8,CCN1CCC(N(Cc2ccc(-c3ccc(C(F)(F)F)cc3)cc2)C(=O)Cn2c(SCc3ccc(F)cc3)nc(=O)c3c2CCC3)CC1,990
9,CN(C)CCCN1CCN(C(=O)c2cccc(-c3noc(C(F)(F)F)n3)c2)CC1,350
10,c1ccc(Oc2ccc(Nc3nncc4ccccc34)cc2)cc1,690
11,CCCCOP(=O)(OCCCC)C(=Cc1ccc(O)c2ccccc12)P(=O)(OCCCC)OCCCC,1070
12,COc1cccc(C2CCN(CCCCNC(=O)c3ccc(NC(=O)c4ccc(Cl)cc4)cc3)CC2)c1,960
13,CC(C)Sc1nc(-c2ccccc2)nc2c1COC(C)(C)C2,860
14,COc1cc(F)c2nccc([C@@H](O)CN3CC[C@@H](NC(=O)OCc4ccccc4)[C@@H](F)C3)c2c1,410
15,Cn1cncc1-c1ccc2ncnc(Nc3ccc4c(cnn4Cc4ccccc4)c3)c2c1,180
16,CCCCCCCC1=NN2C(=N)C(=Cc3cc(Br)c(OCc4ccc(F)cc4)c(OCC)c3)C(=O)N=C2S1,1050
17,COc1ccc(NC(=O)N2CCCN(CCCCCNC(=O)/C=C/c3ccc(C(F)(F)F)cc3)CC2)cc1Cl,980
18,COc1cc(C(F)(F)F)cc2[nH]c(CNCCCNc3nc4ccccc4[nH]3)cc12,280
19,CCCCN(CCCC)CCCCNc1c2ccccc2nc2ccccc12,150
20,COc1ccc2c(c1)Sc1ccccc1C(N1CCN(CCO)CC1)C2 (centres undefined),1390
21,CN(C)Cc1cccc(-c2ccc(NC(=O)c3ccc4c(=O)n(CCN5CCCCC5)cnc4c3)cc2)c1,650
22,CC(C)CCn1c(Sc2ccc([N+](=O)[O-])cc2C(F)(F)F)nnc1-c1ccccc1Cl,920
23,N#CCCn1nc(-c2ccc(Cl)cc2)c2c(c1=O)CCCC2,890

row,SMILES,IC50 [nM]
1,O=C(Nc1ccc(F)c(F)c1)c1ccc(CN2CCCN(Cc3cccc(F)c3)CC2)cc1,1120
2,CCCCCN1C(=O)N(c2ccc(Cl)c(Cl)c2)C(N(O)C(=O)Nc2ccc(Cl)c(Cl)c2)C1(C)C (centres undefined),550
3,O=C(/C=C/c1ccc(Cl)c(Cl)c1)NCCCCCN1CCC(NC(=O)Nc2ccc(Cl)c(C(F)(F)F)c2)CC1,650
4,CCC(C)NS(=O)(=O)c1ccc2nc(Nc3ccc(C)c(Cl)c3)n([C@H](C)C(C)(C)C)c2c1 (some centres undefined),380
5,Clc1ccc2nc(-c3cccnc3)[nH]c2c1,40
6,COc1ccccc1CN1CCC(NC(=O)c2ccc(-c3cccc(Cl)c3)s2)CC1,1420
7,CN(c1ccnc(Nc2ccc(CS(C)(=O)=O)cc2)n1)C1CCN(Cc2ccccc2)CC1,1400
8,COc1ccc(C[C@H](C)NC[C@H](O)c2cccc(Cl)c2)cc1F,990
9,Oc1ccc(CCNc2nc(NCc3ccccc3-c3cccc(Cl)c3)nc(N3CCNCC3)n2)cc1,1280
10,COc1cccc(NC(=O)NC2CCN(CCCCCNC(=O)/C=C/c3ccc(Cl)c(Cl)c3)CC2)c1,780
11,Cc1cc(=O)[nH]c(-n2nc(C)cc2NC(=O)C(c2ccccc2)c2ccccc2)n1,840
12,Cc1cc(NCCC(=O)Nc2ccccc2)nc(NCc2ccccc2C)n1,660
13,CCNc1cc(C(=O)N[C@@H](Cc2ccccc2)[C@H](O)CN[C@@H](C)c2ccccc2)cc(N2CCCC2=O)c1,670
14,O=C(CSc1nc(-c2ccccc2Cl)ns1)Nc1cccc(Cl)c1,790
15,CCCC(=O)c1cnc2c(OCCCc3cnc[nH]3)cccc2c1Nc1c(C)cccc1C,340
16,CCCCCCNC(=O)C1Cc2c([nH]c3ccc(C)cc23)C2(CCN(Cc3ccccc3)CC2)N1 (centres undefined),980
17,Cc1ccc(CNC(=O)[C@H](Cc2ccccc2)Nc2ccnc(NCC3CCCCC3)n2)cc1,1190
18,COc1ccc2nccc([C@@H](O)CN3CCC(NC(=O)Cn4nc(-c5ccc(C(F)(F)F)cc5)ccc4=O)CC3)c2c1,740
19,O=C(C1CCCCC1)N1CCOC(CCN2CCC(c3ccccc3)CC2)(c2ccc(Cl)c(Cl)c2)C1 (centres undefined),930
20,Cc1cc(-c2cccc(CNC3CCN(C)CC3)c2)ccc1S(=O)(=O)NC1CCC1,730
21,CCN(CC)CCCC(C)Nc1cc(C=Cc2ccccc2Cl)nc2cc(Cl)ccc12 (centres undefined),800
22,O=C(Nc1ccc2c(c1)OCO2)c1cc(-c2cccnc2)cnc1NCc1ccc2c(c1)OCO2,1190
23,O=C(Nc1cccc(CN2CCCN(Cc3ccsc3)CC2)c1)c1cc2ccccc2s1,760

row,SMILES,IC50 [nM]
1,C[C@@H](NC(C)(C)C)[C@H](O)c1ccc(Cl)c(C(F)(F)F)c1,740
2,C[C@@H](NC(=O)c1nn(-c2ccc(Cl)cc2)c(=O)c2ccccc12)C(C)(C)C,1120
3,CN1CCN(c2ccc3nc(-c4ccc5nc(-c6ccc([N+](=O)[O-])c(N)c6)[nH]c5c4)[nH]c3c2)CC1,100
4,O=C(Nc1ccc(C(=O)OC[C@@H]2CCCN3CCCC[C@H]23)cc1)c1ccc(Cl)c(Cl)c1,720
5,Cc1nc(C)c(CC(=O)Nc2ccc(-c3cccc(-c4nc5c(C)cccc5[nH]4)c3)cc2)s1,600
6,N#Cc1ccc(N(CC(=O)NCCc2ccccc2)CC2CC2)c2ccccc12,730
7,COc1cc2nc(NCC3CCCO3)n3nc(-c4ccccc4)nc3c2cc1OC (centres undefined),210
8,CCCCCCNC(=O)C1Cc2c([nH]c3ccc(F)cc23)C2(CCN(Cc3ccccc3)CC2)N1 (centres undefined),870
9,CN(C)CCOc1ccc(-n2c(-c3nonc3N)nc3cncc(-c4ccc(F)cc4)c32)cc1,870
10,COc1cc(C(=O)N2CCOC(CCN3CCC(Cc4ccc(F)cc4)CC3)(c3ccc(Cl)c(Cl)c3)C2)cc(OC)c1OC (centres undefined),900
11,CCOc1ccccc1C1CCN(CCCCNC(=O)c2ccc(NC(=O)c3ccc(Cl)cc3)cc2)CC1,850
12,CCCNCc1ccc(-c2ccc(CN(CC3CCCO3)C(=O)COc3ccccc3Cl)cc2)nc1 (centres undefined),1180
13,Oc1ccc(CCNc2nc(NCc3ccccc3-c3ccc(F)cc3)nc(N3CCNCC3)n2)cc1,1070
14,COc1cccc(C(=O)Nc2sc3c(c2C(N)=O)CCCC3)c1OC,930
15,c1cncc(CCNCc2ccc(-c3ccc(-c4nc5ccccc5[nH]4)s3)cc2)c1,210
16,O=C(Nc1ccccc1Cc1ccccc1)c1ccccc1C(F)(F)F,780
17,CCCc1c(C(=O)NC2CCC(CN3CCC(c4c[nH]c5ccccc45)CC3)CC2)cnn1-c1c(Cl)cc(Cl)cc1Cl (centres undefined),820
18,CCN(CCNC(=O)C1CCN(c2cc(-c3cccc(C)c3)ncn2)CC1)Cc1ccccc1,170
19,CCCCCC(C)C(C)c1cc(O)c2c(c1)O[C@@]1(C(C)C)CC(O)[C@H](C)[C@@H]2C1 (some centres undefined),990
20,Cc1noc(C)c1-c1cccc(CNCc2cccc(-c3cccc(-c4nc5c(C)cccc5[nH]4)c3)c2)c1,370
21,CNCCN(C)C(=O)Oc1c(Br)c(C)nc(C)c1-c1ccc(Oc2ccc(OC(F)(F)F)cc2)cc1,110
22,Cc1cccc(CN2CCCN(Cc3ccc(C(=O)Nc4ccc(Cl)cc4)cc3)CC2)c1,600
23,COc1ccc2cc(-c3nc(-c4c(Cl)cccc4Cl)[nH]c3-c3ccnc(NCCCN4CCN(C)CC4)c3)ccc2c1,710
